Source: patent US7393870B2, “3-(heteroarylamino)methylene-1, 3-dihydro-2H-indol-2-ones as kinase inhibitors” (Allergan, Inc., priority 2001, dated 2008)

test system: VEGF induced increases in intracellular calcium levels in HUVEC (human umbilical vein endothelial cells); assay: VEGF Stimulated Ca++ signal assay (FLIPR); assay type: cell-based; conditions: 10 μM compound, 30 min pre-incubation, VEGF 5 ng/mL
Description: VEGF Stimulated Ca^++ Signal in vitro
(§1) Automated FLIPR (Fluorometric Imaging Plate Reader) technology was used to screen for inhibitors of VEGF induced increases in intracellular calcium levels in fluorescent dye loaded endothelial cells. HUVEC (human umbilical vein endothelial cells) (Clonetics) were seeded in 96-well fibronectin coated black-walled plates overnight @ 37° C./5% CO2. Cells were loaded with calcium indicator Fluo-4 for 45 minutes at 37° C. Cells were washed 4 times (Original Cell Wash, Labsystems) to remove extracellular dye. Test compounds were reconstituted in 100% DMSO and added to the cells to give a final DMSO concentration of 0.1%. […] Changes in fluorescence at 516 nm were measured simultaneously in all 96 wells using a cooled CCD camera. Data were generated by determining max-min fluorescence levels for unstimulated, stimulated, and drug treated samples. IC50 values for test compounds were calculated from % inhibition of VEGF stimulated responses in the absence of inhibitor. Protocol for KDR Assay: The cytoplasmic domain of the human VEGF receptor (VEGFR-2) was expressed as a Histidine-tagged fusion protein following infection of insect cells using an engineered baculovirus. His-VEGFR-2 was purified to homogeneity, as determined by SDS-PAGE, using nickel resin chromatography. […]

Q: `Cc1cc(C)c(Cc2cc(NC=C3C(=O)Nc4ccccc43)[nH]n2)c(C)c1` [Example 36] was tested. Which inhibition at 10 µM did it give?
A: 69.3%

same assay, conditions: VEGF 5 ng/mL, 0.01 to 10.0 μM

Q: How did the IC50 turn out when `Cc1cc(C)c(Cc2cc(NC=C3C(=O)Nc4ccccc43)[nH]n2)c(C)c1` [Example 36] was run?
A: 5.9 µM

molecular target: T1, cytoplasmic domain of the human VEGF receptor (VEGFR-2) (Homo sapiens, UniProt P35968); assay: KDR Assay (kinase ELISA, poly-Glu-Tyr substrate); assay type: biochemical; conditions: His-VEGFR-2, 3.6 μM ATP
T1 construct: The cytoplasmic domain of the human VEGF receptor (VEGFR-2) was expressed as a Histidine-tagged fusion protein; His (Histidine tag); made in house; host or cells: insect cells infected with an engineered baculovirus
Description: Automated FLIPR (Fluorometric Imaging Plate Reader) technology was used to screen for inhibitors of VEGF induced increases in intracellular calcium levels in fluorescent dye loaded endothelial cells. HUVEC (human umbilical vein endothelial cells) (Clonetics) were seeded in 96-well fibronectin coated black-walled plates overnight @ 37° C./5% CO2. Cells were loaded with calcium indicator Fluo-4 for 45 minutes at 37° C. Cells were washed 4 times (Original Cell Wash, Labsystems) to remove extracellular dye. Test compounds were reconstituted in 100% DMSO and added to the cells to give a final DMSO concentration of 0.1%. For screening, cells were pre-incubated with test agents for 30 minutes, at a single concentration (10 μM) or at concentrations ranging from 0.01 to 10.0 μM followed by VEGF stimulation (5 ng/mL). Changes in fluorescence at 516 nm were measured simultaneously in all 96 wells using a cooled CCD camera. Data were generated by determining max-min fluorescence levels for unstimulated, stimulated, and drug treated samples. IC50 values for test compounds were calculated from % inhibition of VEGF stimulated responses in the absence of inhibitor. Protocol for KDR Assay: The cytoplasmic domain of the human VEGF receptor (VEGFR-2) was expressed as a Histidine-tagged fusion protein following infection of insect cells using an engineered baculovirus. His-VEGFR-2 was purified to homogeneity, as determined by SDS-PAGE, using nickel resin chromatography. Kinase assays were performed in 96 well microtiter plates that were coated overnight with 30 μg of poly-Glu-Tyr (4:1) in 10 mM Phosphate Buffered Saline (PBS), pH 7.2-7.4. The plates were incubated with 1% BSA and then washed four times with PBS prior to starting the reaction. Reactions were carried out in 120 μL reaction volumes containing 3.6 μM ATP in kinase buffer (50 mM Hepes buffer pH 7.4, 20 mM MgCl2, 0.1 mM MnCl2 and 0.2 mM Na3VO4). Test compounds were reconstituted in 100% DMSO and added to the reaction to give a final DMSO concentration of 5%. Reactions were initiated by the addition 0.5 ng of purified protein. Following a ten minute incubation at 25° C., the reactions were washed four times with PBS containing 0.05% Tween-20. 100 μl of a monoclonal anti-phosphotyrosine antibody-peroxidase conjugate was diluted 1:10000 in PBS-Tween-20 and added to the wells for 30 minutes. Following four washes with PBS-Tween-20, 100 μl of 0-Phenylenediamine Dihydrochloride in Phosphate-citrate buffer, containing urea hydrogen peroxide, was added to the wells for 7 minutes as a colorimetric substrate for the peroxidase. The reaction was terminated by the addition of 100 μl of 2.5N H2SO4 to each well and read using a microplate ELISA reader set at 492 nm. IC50 values for compound inhibition were calculated directly from graphs of optical density (arbitrary units) versus compound concentration following subtraction of blank values. Miles Assay Description VEGF-induced Dermal Extravasation in Guinea Pig (Miles Assay). Male Hartley guinea pigs (300-600 g) were anesthetized with isofluorane, sheared, and given a single oral dose of drug or the respective vehicle. Ten minutes prior to the end of drug treatment, guinea pigs were anesthetized with isofluorane, and 0.5% Evans blue dye (EBD) in PBS (13-15 mg/kg dose of EBD) was injected intravenously. After 5 minutes, triplicate intradermal injections of 100 ng rhVEGF165 in 100 μl PBS and of 100 μl PBS alone were administered on the flank. After 20 minutes, each animal was euthanized with Pentosol, and the skin containing the intradermal injection sites was removed for image analysis.

T1 sequence (P35968 786-1356 limits assumed): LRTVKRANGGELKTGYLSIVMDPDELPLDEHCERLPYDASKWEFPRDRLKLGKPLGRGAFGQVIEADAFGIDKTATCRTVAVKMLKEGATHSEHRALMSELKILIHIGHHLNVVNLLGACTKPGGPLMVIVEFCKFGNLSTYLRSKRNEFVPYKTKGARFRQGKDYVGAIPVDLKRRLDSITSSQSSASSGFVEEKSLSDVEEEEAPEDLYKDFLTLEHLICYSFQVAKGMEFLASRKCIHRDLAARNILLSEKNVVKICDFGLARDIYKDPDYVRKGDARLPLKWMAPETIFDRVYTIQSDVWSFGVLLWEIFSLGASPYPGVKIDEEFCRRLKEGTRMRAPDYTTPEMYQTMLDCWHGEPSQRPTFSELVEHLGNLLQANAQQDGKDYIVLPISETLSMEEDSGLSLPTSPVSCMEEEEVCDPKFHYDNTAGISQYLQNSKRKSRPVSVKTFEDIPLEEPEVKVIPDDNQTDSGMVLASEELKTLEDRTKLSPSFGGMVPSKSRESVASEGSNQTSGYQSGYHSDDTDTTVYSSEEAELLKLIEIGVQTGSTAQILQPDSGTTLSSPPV

Q: Which IC50 does the source give for `Cc1cccc2c1C(=CNc1n[nH]c(-c3ccccc3)c1Br)C(=O)N2` [Example 12, 3-[(4-Bromo-5-phenyl-1H-pyrazol-3-ylamino)-methylene]-4-methyl-1,3-dihydro-indol-2-one] here?
A: ≥ 10 µM

Q: With `Cc1cc(C)c(Cc2cc(NC=C3C(=O)Nc4ccccc43)[nH]n2)c(C)c1` [Example 36] as the compound, how does the IC50 read?
A: ≥ 10 µM

Q: For `O=C1Nc2ccccc2C1=CNc1cc(-c2cc(OCc3ccccc3)cc(OCc3ccccc3)c2)n[nH]1` [Example 31, 3-{[5-(3,5-Bis-benzyloxy-phenyl)-2H-pyrazol-3-ylamino]-methylene}-1,3-dihydro-indol-2-one], which IC50 is on record?
A: ≥ 10 µM

Q: For `Cc1cccc(Cc2cc(NC=C3C(=O)Nc4ccccc43)[nH]n2)c1` [Example 39, 3-{[5-(3-Methyl-benzyl)-2H-pyrazol-3-ylamino]-methylene}-1,3-dihydro-indol-2-one], which IC50 is on record?
A: ≥ 10 µM

Q: Which IC50 does the source give for `Cc1ccc(-c2cc(NC=C3C(=O)Nc4ccccc43)[nH]n2)c(C)c1` [Example 34, 3-{[5-(2,4-Dimethyl-phenyl)-2H-pyrazol-3-ylamino]-methylene}-1,3-dihydro-indol-2-one] here?
A: ≥ 10 µM

Q: With `Cc1cc(C)c2c(NC=C3C(=O)Nc4ccccc43)n[nH]c2n1` [Example 25, 3-[(4,6-Dimethyl-1H-pyrazolo[3,4-b]pyridin-3-ylamino)-methylene]-1,3-dihydro-indol-2-one] as the compound, how does the IC50 read?
A: ≥ 10 µM

Q: Which IC50 does the source give for `O=C1Nc2ccc(Cl)cc2C1=CNc1n[nH]c(-c2ccccc2)c1Br` [Example 13, 3-[(4-Bromo-5-phenyl-1H-pyrazol-3-ylamino)-methylene]-5-chloro-1,3-dihydro-indol-2-one] here?
A: ≥ 10 µM

Q: Which IC50 does the source give for `O=C1Nc2ccccc2C1=CNc1cc(Cc2ccccc2)n[nH]1` [Example 40, 3-[(5-Benzyl-2H-pyrazol-3-ylamino)-methylene]-1,3-dihydro-indol-2-one] here?
A: ≥ 10 µM

Q: `COC(=O)c1ccc(-c2cc(NC=C3C(=O)Nc4ccccc43)n[nH]2)cc1` [Example 24, 4-{5-[(2-Oxo-1,2-dihydro-indol-3-ylidenemethyl)-amino]-2H-pyrazol-3-yl}-benzoic acid methyl ester] was tested. Which IC50 did it give?
A: ≥ 10 µM

test system: VEGF-induced EBD extravasation; assay: Miles Assay: VEGF-induced Dermal Extravasation in Guinea Pig; assay type: in vivo; conditions: oral administration, Table 3
Description: as §1

Q: Which “in-vivo activity (Miles Assay, in words)” value does the source give for `Cc1cccc2c1C(=CNc1cc[nH]n1)C(=O)N2` [Example 6, 4-Methyl-3-[(1H-pyrazol-3-ylamino)-methylene]-1,3-dihydro-indol-2-one] here?
A: significant in-vivo activity

Q: How did the “in-vivo activity (Miles Assay, in words)” value turn out when `Cc1cc(NC=C2C(=O)Nc3ccc(F)cc32)n[nH]1` [Example 26, 5-Fluoro-3-[(5-methyl-1H-pyrazol-3-ylamino)-methylene]-1,3-dihydro-indol-2-one] was run?
A: significant in-vivo activity
